From ChEMBL document CHEMBL6177955, “Design, synthesis and biological evaluation of Golgi-targeting anion transporters as inducers of Golgiphagy and apoptosis in cancer cells” (Eur J Med Chem, 2025)
The source made the active and inactive calls. No cut-off for these calls is given here.

What was measured:
HepG2 [1] = assay: Antitumor activity against human HepG2 cells xenografted mouse model assessed as reduction GRASP55 expression in tumor tissue at 5 to 10 mg/kg, ip administered once every 2 days for 21 days; type: functional, organism-based; details: dose 5-10 mg/kg, time 21.0 day
HepG2 [2] = assay: Induction of chloride ion influx in human HepG2 cells assessed as effect on lysosomal chloride anions at 5 to 20 uM measured after 12 hrs incubation by chloride-sensitive dye MQAE-MP based CLSM imaging analysis; type: functional, cell-based; details: dose 5-20 µM
HepG2 [3] = assay: Antitumor activity against human HepG2 cells xenografted mouse model assessed as reduction in tumor growth inhibition at 5 mg/kg, ip administered once every 2 days for 21 days relative to control; type: functional; details: HepG2, 504 h, time 21 day, read-out: TGI
HepG2 [4] = assay: Induction of apoptosis in human HepG2 cells assessed as necrotic cells at 5 uM measured after 24 hrs incubation by Propidium iodide/Annexin V-FITC analysis (reference value: 1.14%); type: functional
[5] = Toxicity in mouse xenografted with human HepG2 cells assessed as histopathological changes in lung at 5 to 10 mg/kg, ip administered once every 2 days for 21 days by H and E staining based analysis; type: organism-based; details: in vivo, 504 h, dose 5-10 mg/kg, time 21 day
[6] = Toxicity in mouse xenografted with human HepG2 cells assessed as creatine kinase (CK) at 5 to 10 mg/kg, ip administered once every 2 days for 21 days; type: organism-based; details: in vivo, 504 h, dose 5-10 mg/kg, time 21 day
HepG2 [7] = assay: Induction of Golgi apparatus disruption in human HepG2 cells at 5 to 10 uM measured after 24 hrs by TEM imaging analysis; type: functional, cell-based; details: dose 5-10 µM
HepG2 [8] = assay: Antitumor activity against human HepG2 cells xenografted mouse model assessed as reduction GM130 expression in tumor tissue at 5 to 10 mg/kg, ip administered once every 2 days for 21 days; type: functional, organism-based; details: dose 5-10 mg/kg, time 21.0 day
[9] = Toxicity in mouse xenografted with human HepG2 cells assessed as histopathological changes in liver at 5 to 10 mg/kg, ip administered once every 2 days for 21 days by H and E staining based analysis; type: organism-based; details: in vivo, 504 h, dose 5-10 mg/kg, time 21 day
HepG2 [10] = assay: Induction of apoptosis in human HepG2 cells assessed as late apoptotic cells at 20 uM measured after 24 hrs incubation by Propidium iodide/Annexin V-FITC analysis (reference value: 5.71%); type: functional
HepG2 [11] = assay: Induction of apoptosis in human HepG2 cells assessed as reduction in Golgi-associated apoptotic proteins (GAAPs) expression measured after 24 hrs by Western blot analysis; type: functional, cell-based
HepG2 [12] = assay: Induction of autophagosome formation in human HepG2 cells assessed as green fluorescence in Golgi apparatus by measuring pearson co-localization at 10 uM measured after 12 hrs incubation by mCherry-LC3B assay; type: functional
Lipid bilayer [13] = assay: Vesicular anionophoric activity in large unilamellar vesicle membrane derived from egg-yolk L-alpha-phosphatidylcholine assessed as induction of relative efflux of chloride ions in presence of lithium (Li+) measured up to 300 seconds by using chloride-selective electrode; details: time <= 300.0 sec
HepG2 [14] = assay: Cytotoxicity against human HepG2 cells assessed as cell viability at 1 to 20 uM measured after 24 hrs incubation in presence of chloride anions; type: functional, cell-based; details: dose 1-20 µM
HepG2 [15] = assay: Induction of autophagosome formation in human HepG2 cells assessed as green fluorescence in mitochondria by measuring pearson co-localization at 10 uM measured after 12 hrs incubation by mCherry-LC3B assay; type: functional
MCF7 = assay: Antiproliferative activity against human MCF7 cells by MTT assay; type: functional, cell-based
Lipid bilayer [16] = assay: Vesicular anionophoric activity in large unilamellar vesicle membrane derived from egg-yolk L-alpha-phosphatidylcholine assessed as induction of relative efflux of chloride ions in presence of cesium (Cs+) measured up to 300 seconds by using chloride-selective electrode; details: time <= 300.0 sec
Lipid bilayer [17] = assay: Vesicular anionophoric activity in large unilamellar vesicle membrane derived from egg-yolk L-alpha-phosphatidylcholine assessed as induction of relative efflux of chloride ions measured up to 300 seconds by using chloride-selective electrode
HepG2 [18] = assay: Antitumor activity against human HepG2 cells xenografted mouse model assessed as reduction Golgi-associated apoptotic proteins (GAAPs) expression in tumor tissue at 5 to 10 mg/kg, ip administered once every 2 days for 21 days; type: functional, organism-based; details: dose 5-10 mg/kg, time 21.0 day
HepG2 [19] = assay: Induction of apoptosis in human HepG2 cells assessed as viable cells at 10 uM measured after 24 hrs incubation by Propidium iodide/Annexin V-FITC analysis (reference value: 90.2%); type: functional; details: read-out: Activity
A2780 = assay: Antiproliferative activity against human A2780 cells by MTT assay; type: functional, cell-based
HepG2 [20] = assay: Induction of chloride ion influx in human HepG2 cells assessed as increase in intracellular chloride anions at 5 to 20 uM measured after 12 hrs incubation by chloride-sensitive dye MQAE-based CLSM imaging analysis; type: functional, cell-based; details: dose 5-20 µM
HepG2 [21] = assay: Induction of autophagosome formation in human HepG2 cells assessed as green fluorescence in endoplasmic reticulum (ER) by measuring pearson co-localization at 10 uM measured after 12 hrs incubation by mCherry-LC3B assay; type: functional
[22] = Toxicity in mouse xenografted with human HepG2 cells assessed as histopathological changes in spleen at 5 to 10 mg/kg, ip administered once every 2 days for 21 days by H and E staining based analysis; type: organism-based; details: in vivo, 504 h, dose 5-10 mg/kg, time 21 day

Activity (Lipid bilayer [13]): Active
IC50 (MCF7): 12.7 µM
Activity (Lipid bilayer [16]): Active
EC50 (Lipid bilayer [17]): 1.53 mol%
IC50 (A2780): > 50 µM
Structure (SMILES): NS(=O)(=O)c1ccc(NC(=O)CCCCCNc2c(Nc3cc(C(F)(F)F)cc(C(F)(F)F)c3)c(=O)c2=O)cc1
Activity (HepG2 [1]): Active
Activity (HepG2 [2]): inactive
inhibition in vivo at 5 mg/kg (HepG2 [3]): 62%
Activity (HepG2 [4]): 1.64%
Activity [5]: Non-toxic
Activity [6]: Non-toxic
Activity (HepG2 [7]): Active
Activity (HepG2 [8]): Active
Activity [9]: Non-toxic
Activity (HepG2 [10]): 36.5%
Activity (HepG2 [11]): Dose-dependent-effect
Activity (HepG2 [12]): 0.83
Activity (HepG2 [14]): Active; Cytotoxicity Enhanced In Presence Of Chloride Anions
Activity (HepG2 [15]): 0.23
Activity (HepG2 [18]): Active
viability at 10 µM (HepG2 [19]): 50%
Activity (HepG2 [20]): Active
Activity (HepG2 [21]): 0.13
Activity [22]: Non-toxic
